One compound from ChEMBL document CHEMBL5247657 (J Med Chem, 2023) can be followed below.

Structures are written as SMILES.

Data set [1] can be described thus: Half-life in Sprague-Dawley rat at 1 mg/kg, iv measured upto 24 hrs by LC-MS/MS analysis. The format is ADME, organism-based. Particulars: in vivo.
Data set [2] can be described thus: Volume of distribution at steady state in Sprague-Dawley rat at 1 mg/kg, iv measured upto 24 hrs by LC-MS/MS analysis. It counts as ADME, organism-based. The following applies: in vivo, read-out: Vdss.
Data set [3] can be described thus: Half-life in Beagle dog at 1 mg/kg, iv measured upto 24 hrs by LC-MS/MS analysis. The following applies: in vivo. It counts as ADME, organism-based, Canis lupus familiaris.
Data set [4] in a line: Volume of distribution at steady state in Beagle dog at 1 mg/kg, iv measured upto 24 hrs by LC-MS/MS analysis. It counts as ADME, organism-based, Canis lupus familiaris. The following applies: in vivo, read-out: Vdss.
A short description of data set [5]: Tmax in Sprague-Dawley rat at 5 mg/kg, po measured upto 24 hrs by LC-MS/MS analysis. It counts as ADME, organism-based. Particulars: in vivo.
The nature of data set [6]: Tmax in Beagle dog at […], po measured upto 24 hrs by LC-MS/MS analysis. It counts as ADME, organism-based, Canis lupus familiaris. The following applies: in vivo, dose 2.5 mg/kg.
A short description of data set [7]: in vivo. The following applies: Beagle, dog, iv, 1 mg/kg.
A short description of data set [8]: in vivo. The following applies: Sprague-Dawley, rat, po, 5 mg/kg.
Data set [9] can be described thus: in vivo. The following applies: Beagle, dog, po.
Data set [10] in a line: in vivo. The following applies: Beagle, dog, po. The source holds these as a separate data set.
Data set [11] in a line: in vivo. The following applies: Beagle, dog, po. The source holds these as a separate data set.

As usually defined, the half-life is the time in which the quantity being followed falls by half. Read a high half-life as slow decline. In general, Tmax refers to the time at which the peak concentration occurs. By clearance is commonly meant a measure of how efficiently the substance is removed, as volume per time. Low values mean a low capacity for elimination, high ones a high capacity for elimination. In general, AUC(0-inf) refers to the area under the concentration-time curve extrapolated to infinity. Lower therefore signals low exposure. What is called Cmax is the maximum level reached in the sampled fluid or tissue. In general, bioavailability refers to the share of a dose that reaches the circulation, judged against a reference dose that is usually intravenous. For the compound `C=CC(=O)N1CCC([C@@H]2CCNc3c(C(N)=O)c(-c4cc(OC)c(C)c(OC)c4)nn32)CC1`, the values for the half-life in [1] and in [3] were 36 min and 150 min, respectively. The values for the Vd in data set [2] and in [4] were 0.9 L/kg and 0.74 L/kg, respectively. Also, in [5], the time to peak (Tmax) came to 15 min. Further, in data set [6], the Tmax at 24 h worked out at 25.2 min. The clearance at 24 h in the data set “in vivo [7]” turned out to be 6.89 mL/min/kg. For the same compound, the AUC(0-inf) at 24 h in the data set “in vivo [8]” is 964 ng·h/mL; in “in vivo [10]” it was 2640 ng·h/mL. In the data set “in vivo [9]”, this compound yielded a Cmax at 24 h of 1250 ng/mL. In addition, the bioavailability at 24 h in “in vivo [11]” is 43%.
